tested on: Vero E6 cells; settings: 72 h

Structure (SMILES)	CC50 (mean ± SD) [µM]
CC[C@H](C)[C@H](NC(=O)[C@H](CCC(N)=O)NC(=O)[C@H](CC(C)C)NC(=O)[C@H](C)NC(=O)[C@H](C)NC(=O)CNC(=O)[C@H](C)NC(=O)CNC(=O)[C@H](Cc1ccccc1)NC(=O)[C@@H](NC(=O)[C@H](Cc1c[nH]c2ccccc12)NC(=O)CNC(=O)[C@H](CO)NC(C)=O)[C@@H](C)O)C(=O)N1CCC[C@H]1C(=O)N[C@@H](Cc1ccccc1)C(=O)N[C@@H](C)C(=O)N[C@@H](CCSC)C(N)=O [PC17]	> 100
CC[C@H](C)[C@H](NC(=O)[C@H](CCC(N)=O)NC(=O)[C@H](CC(C)C)NC(=O)[C@H](C)NC(=O)[C@H](C)NC(=O)CNC(=O)[C@H](C)NC(=O)CNC(=O)[C@H](Cc1ccccc1)NC(=O)[C@@H](NC(=O)[C@H](Cc1c[nH]c2ccccc12)NC(=O)CNC(=O)[C@H](CO)NC(C)=O)[C@@H](C)O)C(=O)N1CCC[C@H]1C(=O)N[C@@H](Cc1ccccc1)C(=O)N[C@@H](C)C(=O)N[C@@H](CCSC)C(=O)N[C@@H](CCC(N)=O)C(=O)N[C@@H](CCSC)C(N)=O [PC19]	> 100
CSCC[C@H](NC(=O)[C@H](C)NC(=O)[C@H](Cc1ccccc1)NC(C)=O)C(=O)N[C@@H](CCC(N)=O)C(=O)N[C@@H](CCSC)C(=O)N[C@@H](C)C(=O)N[C@@H](Cc1ccc(O)cc1)C(=O)N[C@@H](CCCNC(=N)N)C(=O)N[C@@H](Cc1ccccc1)C(N)=O [PN9]	> 100
CC[C@H](C)[C@H](NC(=O)[C@H](CCC(N)=O)NC(=O)[C@H](CC(C)C)NC(C)=O)C(=O)N1CCC[C@H]1C(=O)N[C@@H](Cc1ccccc1)C(=O)N[C@@H](C)C(=O)N[C@@H](CCSC)C(=O)N[C@@H](CCC(N)=O)C(=O)N[C@@H](CCSC)C(=O)N[C@@H](C)C(=O)N[C@@H](Cc1ccc(O)cc1)C(=O)N[C@@H](CCCNC(=N)N)C(=O)N[C@@H](Cc1ccccc1)C(N)=O [PN13]	> 100
CC[C@H](C)[C@H](NC(=O)[C@H](CCC(N)=O)NC(=O)[C@H](CC(C)C)NC(=O)[C@H](C)NC(=O)[C@H](C)NC(=O)CNC(=O)[C@H](C)NC(C)=O)C(=O)N1CCC[C@H]1C(=O)N[C@@H](Cc1ccccc1)C(=O)N[C@@H](C)C(=O)N[C@@H](CCSC)C(=O)N[C@@H](CCC(N)=O)C(=O)N[C@@H](CCSC)C(=O)N[C@@H](C)C(=O)N[C@@H](Cc1ccc(O)cc1)C(=O)N[C@@H](CCCNC(=N)N)C(=O)N[C@@H](Cc1ccccc1)C(N)=O [PN17]	> 100
CC[C@H](C)[C@H](NC(=O)[C@H](CCC(N)=O)NC(=O)[C@H](CC(C)C)NC(=O)[C@H](C)NC(=O)[C@H](C)NC(=O)CNC(=O)[C@H](C)NC(=O)CNC(=O)[C@H](C)NC(C)=O)C(=O)N1CCC[C@H]1C(=O)N[C@@H](Cc1ccccc1)C(=O)N[C@@H](C)C(=O)N[C@@H](CCSC)C(=O)N[C@@H](CCC(N)=O)C(=O)N[C@@H](CCSC)C(=O)N[C@@H](C)C(=O)N[C@@H](Cc1ccc(O)cc1)C(=O)N[C@@H](CCCNC(=N)N)C(=O)N[C@@H](Cc1ccccc1)C(N)=O [PN19F→A888]	> 100
CC[C@H](C)[C@H](NC(=O)[C@H](CCC(N)=O)NC(=O)[C@H](CC(C)C)NC(=O)[C@H](C)NC(=O)[C@H](C)NC(=O)CNC(=O)[C@H](C)NC(=O)CNC(=O)[C@H](Cc1ccccc1)NC(C)=O)C(=O)N1CCC[C@H]1C(=O)N[C@@H](C)C(=O)N[C@@H](C)C(=O)N[C@@H](CCSC)C(=O)N[C@@H](CCC(N)=O)C(=O)N[C@@H](CCSC)C(=O)N[C@@H](C)C(=O)N[C@@H](Cc1ccc(O)cc1)C(=O)N[C@@H](CCCNC(=N)N)C(=O)N[C@@H](Cc1ccccc1)C(N)=O [PN19F→A898]	> 100
CC[C@H](C)[C@H](NC(=O)[C@H](CCC(N)=O)NC(=O)[C@H](CC(C)C)NC(=O)[C@H](C)NC(=O)[C@H](C)NC(=O)CNC(=O)[C@H](C)NC(=O)CNC(=O)[C@H](Cc1ccccc1)NC(C)=O)C(=O)N1CCC[C@H]1C(=O)N[C@@H](Cc1ccccc1)C(=O)N[C@@H](C)C(=O)N[C@@H](CCSC)C(=O)N[C@@H](CCC(N)=O)C(=O)N[C@@H](CCSC)C(=O)N[C@@H](C)C(=O)N[C@@H](Cc1ccc(O)cc1)C(=O)N[C@@H](CCCNC(=N)N)C(=O)N[C@@H](C)C(N)=O [PN19F→A906]	> 100
CSCC[C@H](NC(=O)[C@H](C)NC(=O)[C@H](Cc1ccccc1)NC(=O)[C@@H]1CCCN1C(=O)[C@H](C)NC(=O)[C@H](CCC(N)=O)NC(=O)[C@H](CC(C)C)NC(=O)[C@H](C)NC(=O)[C@H](C)NC(=O)CNC(=O)[C@H](C)NC(=O)CNC(=O)[C@H](Cc1ccccc1)NC(C)=O)C(=O)N[C@@H](CCC(N)=O)C(=O)N[C@@H](CCSC)C(=O)N[C@@H](C)C(=O)N[C@@H](Cc1ccc(O)cc1)C(=O)N[C@@H](CCCNC(=N)N)C(=O)N[C@@H](Cc1ccccc1)C(N)=O [PN19I→A896]	> 100
CC[C@H](C)[C@H](NC(=O)[C@H](CCC(N)=O)NC(=O)[C@H](C)NC(=O)[C@H](C)NC(=O)[C@H](C)NC(=O)CNC(=O)[C@H](C)NC(=O)CNC(=O)[C@H](Cc1ccccc1)NC(C)=O)C(=O)N1CCC[C@H]1C(=O)N[C@@H](Cc1ccccc1)C(=O)N[C@@H](C)C(=O)N[C@@H](CCSC)C(=O)N[C@@H](CCC(N)=O)C(=O)N[C@@H](CCSC)C(=O)N[C@@H](C)C(=O)N[C@@H](Cc1ccc(O)cc1)C(=O)N[C@@H](CCCNC(=N)N)C(=O)N[C@@H](Cc1ccccc1)C(N)=O [PN19L→A894]	> 100
CC[C@H](C)[C@H](NC(=O)[C@H](CCC(N)=O)NC(=O)[C@H](CC(C)C)NC(=O)[C@H](C)NC(=O)[C@H](C)NC(=O)CNC(=O)[C@H](C)NC(=O)CNC(=O)[C@H](Cc1ccccc1)NC(C)=O)C(=O)N1CCC[C@H]1C(=O)N[C@@H](Cc1ccccc1)C(=O)N[C@@H](C)C(=O)N[C@@H](C)C(=O)N[C@@H](CCC(N)=O)C(=O)N[C@@H](CCSC)C(=O)N[C@@H](C)C(=O)N[C@@H](Cc1ccc(O)cc1)C(=O)N[C@@H](CCCNC(=N)N)C(=O)N[C@@H](Cc1ccccc1)C(N)=O [PN19M→A900]	> 100
CC[C@H](C)[C@H](NC(=O)[C@H](CCC(N)=O)NC(=O)[C@H](CC(C)C)NC(=O)[C@H](C)NC(=O)[C@H](C)NC(=O)CNC(=O)[C@H](C)NC(=O)CNC(=O)[C@H](Cc1ccccc1)NC(C)=O)C(=O)N1CCC[C@H]1C(=O)N[C@@H](Cc1ccccc1)C(=O)N[C@@H](C)C(=O)N[C@@H](CCSC)C(=O)N[C@@H](CCC(N)=O)C(=O)N[C@@H](C)C(=O)N[C@@H](C)C(=O)N[C@@H](Cc1ccc(O)cc1)C(=O)N[C@@H](CCCNC(=N)N)C(=O)N[C@@H](Cc1ccccc1)C(N)=O [PN19M→A902]	> 100
CC[C@H](C)[C@H](NC(=O)[C@H](CCC(N)=O)NC(=O)[C@H](CC(C)C)NC(=O)[C@H](C)NC(=O)[C@H](C)NC(=O)CNC(=O)[C@H](C)NC(=O)CNC(=O)[C@H](Cc1ccccc1)NC(C)=O)C(=O)N[C@@H](C)C(=O)N[C@@H](Cc1ccccc1)C(=O)N[C@@H](C)C(=O)N[C@@H](CCSC)C(=O)N[C@@H](CCC(N)=O)C(=O)N[C@@H](CCSC)C(=O)N[C@@H](C)C(=O)N[C@@H](Cc1ccc(O)cc1)C(=O)N[C@@H](CCCNC(=N)N)C(=O)N[C@@H](Cc1ccccc1)C(N)=O [PN19P→A897]	> 100
CC[C@H](C)[C@H](NC(=O)[C@H](C)NC(=O)[C@H](CC(C)C)NC(=O)[C@H](C)NC(=O)[C@H](C)NC(=O)CNC(=O)[C@H](C)NC(=O)CNC(=O)[C@H](Cc1ccccc1)NC(C)=O)C(=O)N1CCC[C@H]1C(=O)N[C@@H](Cc1ccccc1)C(=O)N[C@@H](C)C(=O)N[C@@H](CCSC)C(=O)N[C@@H](CCC(N)=O)C(=O)N[C@@H](CCSC)C(=O)N[C@@H](C)C(=O)N[C@@H](Cc1ccc(O)cc1)C(=O)N[C@@H](CCCNC(=N)N)C(=O)N[C@@H](Cc1ccccc1)C(N)=O [PN19Q→A895]	>100
CC[C@H](C)[C@H](NC(=O)[C@H](CCC(N)=O)NC(=O)[C@H](CC(C)C)NC(=O)[C@H](C)NC(=O)[C@H](C)NC(=O)CNC(=O)[C@H](C)NC(=O)CNC(=O)[C@H](Cc1ccccc1)NC(C)=O)C(=O)N1CCC[C@H]1C(=O)N[C@@H](Cc1ccccc1)C(=O)N[C@@H](C)C(=O)N[C@@H](CCSC)C(=O)N[C@@H](C)C(=O)N[C@@H](CCSC)C(=O)N[C@@H](C)C(=O)N[C@@H](Cc1ccc(O)cc1)C(=O)N[C@@H](CCCNC(=N)N)C(=O)N[C@@H](Cc1ccccc1)C(N)=O [PN19Q→A901]	> 100
CC[C@H](C)[C@H](NC(=O)[C@H](CCC(N)=O)NC(=O)[C@H](CC(C)C)NC(=O)[C@H](C)NC(=O)[C@H](C)NC(=O)CNC(=O)[C@H](C)NC(=O)CNC(=O)[C@H](Cc1ccccc1)NC(C)=O)C(=O)N1CCC[C@H]1C(=O)N[C@@H](Cc1ccccc1)C(=O)N[C@@H](C)C(=O)N[C@@H](CCSC)C(=O)N[C@@H](CCC(N)=O)C(=O)N[C@@H](CCSC)C(=O)N[C@@H](C)C(=O)N[C@@H](Cc1ccc(O)cc1)C(=O)N[C@@H](C)C(=O)N[C@@H](Cc1ccccc1)C(N)=O [PN19R→A905]	> 100
CC[C@H](C)[C@H](NC(=O)[C@H](CCC(N)=O)NC(=O)[C@H](CC(C)C)NC(=O)[C@H](C)NC(=O)[C@H](C)NC(=O)CNC(=O)[C@H](C)NC(=O)CNC(=O)[C@H](Cc1ccccc1)NC(C)=O)C(=O)N1CCC[C@H]1C(=O)N[C@@H](Cc1ccccc1)C(=O)N[C@@H](C)C(=O)N[C@@H](CCSC)C(=O)N[C@@H](CCC(N)=O)C(=O)N[C@@H](CCSC)C(N)=O [PNC15]	> 100
CC[C@H](C)[C@H](NC(=O)[C@H](CCC(N)=O)NC(=O)[C@H](CC(C)C)NC(=O)[C@H](C)NC(=O)[C@H](C)NC(=O)CNC(=O)[C@H](C)NC(=O)CNC(=O)[C@H](Cc1ccccc1)NC(=O)[C@@H](NC(=O)[C@H](Cc1c[nH]c2ccccc12)NC(C)=O)[C@@H](C)O)C(=O)N1CCC[C@H]1C(=O)N[C@@H](Cc1ccccc1)C(=O)N[C@@H](C)C(=O)N[C@@H](CCSC)C(=O)N[C@@H](CCC(N)=O)C(=O)N[C@@H](CCSC)C(=O)N[C@@H](C)C(=O)N[C@@H](Cc1ccc(O)cc1)C(N)=O [PNC19]	> 100

tested on: MPER25c peptide (S2 membrane proximal region derived); type: binding, SARS-CoV-2; settings: not given

Structure (SMILES)	fold lower binding activity to immobilized MPER25c than PN19
CC[C@H](C)[C@H](NC(=O)[C@H](CCC(N)=O)NC(=O)[C@H](CC(C)C)NC(=O)[C@H](C)NC(=O)[C@H](C)NC(=O)CNC(=O)[C@H](C)NC(=O)CNC(=O)[C@H](Cc1ccccc1)NC(C)=O)C(=O)N1CCC[C@H]1C(=O)N[C@@H](C)C(=O)N[C@@H](C)C(=O)N[C@@H](CCSC)C(=O)N[C@@H](CCC(N)=O)C(=O)N[C@@H](CCSC)C(=O)N[C@@H](C)C(=O)N[C@@H](Cc1ccc(O)cc1)C(=O)N[C@@H](CCCNC(=N)N)C(=O)N[C@@H](Cc1ccccc1)C(N)=O [PN19F→A898]	2-3 fold
CC[C@H](C)[C@H](NC(=O)[C@H](CCC(N)=O)NC(=O)[C@H](CC(C)C)NC(=O)[C@H](C)NC(=O)[C@H](C)NC(=O)CNC(=O)[C@H](C)NC(=O)CNC(=O)[C@H](Cc1ccccc1)NC(C)=O)C(=O)N1CCC[C@H]1C(=O)N[C@@H](Cc1ccccc1)C(=O)N[C@@H](C)C(=O)N[C@@H](CCSC)C(=O)N[C@@H](CCC(N)=O)C(=O)N[C@@H](CCSC)C(=O)N[C@@H](C)C(=O)N[C@@H](Cc1ccc(O)cc1)C(=O)N[C@@H](CCCNC(=N)N)C(=O)N[C@@H](C)C(N)=O [PN19F→A906]	2-3 fold

Reference: paper PMC10384657 (Virus Research, 2023)
